Experimental data reported in article PMC11273930, “Bioactive Bioxanthracene and Cyclodepsipeptides from the Entomopathogenic Fungus Blackwellomyces roseostromatus BCC56290” (Antibiotics, 2024).
Converted amounts (≈) assume the structure as drawn. “And” between values parts separate entries of the source, which are not always exact repeats. Identical values can stand only once. Like-named read-outs stand apart in the source and are kept apart here. Where a SMILES comes first, the peptide text is derived from it. [ ]: non-standard residue; d: D form. PhLac = O=C(O)[C@@H](O)Cc1ccccc1; NMeA = CN[C@@H](C)C(=O)O

Experiments:
[1] = test system: Acinetobacter baumanii (DSM 30008); experiment: Antimicrobial assay (MIC); format: cell-based; parameters: key: -: no inhibition observed
Experimental: (§1) The antimicrobial activity of the isolated secondary metabolites was determined using our established protocol, against clinically relevant microorganisms obtained from the German Collection of Microorganisms and Cell Cultures (DSMZ, Braunschweig, Germany). These included Staphylococcus aureus (DSM 346), Bacillus subtilis (DSM 10), Acinetobacter baumanii (DSM 30008), Escherichia coli (DSM 1116), Chromobacterium violaceum (DSM 30191), Pseudomonas aeruginosa (PA14), Mycolicibacterium smegmatis (ATCC 700084), Candida albicans (DSM 1665), Mucor hiemalis (DSM 2656), Rhodotorula glutinis (DSM 10134), Schizosaccharomyces pombe (DSM 70572) and Pichia anomala (DSM 6766). Nystatin was used as an antifungal positive control whereas oxytetracycline, ciprofloxacin, gentamicin, and kanamycin were used as positive controls against Gram-positive and Gram-negative bacteria.

[2] = test system: Mycobacterium smegmatis (ATCC 700084); experiment: Antimicrobial assay (MIC); format: cell-based; parameters: key to MIC (µg/mL): -: no inhibition observed
Experimental: as §1

[3] = test system: Chromobacterium violaceum (DSM 30191); experiment: Antimicrobial assay (MIC); format: cell-based; parameters: key to MIC (µg/mL): -: no inhibition observed
Experimental: as §1

[4] = test system: Rhodotorula glutinis (DSM 10134); experiment: Antimicrobial assay (MIC); format: cell-based; parameters: key to MIC (µg/mL): -: no inhibition observed
Experimental: as §1

[5] = test system: Schizosaccharomyces pombe (DSM 70572); experiment: Antimicrobial assay (MIC); format: cell-based; parameters: key to MIC (µg/mL): -: no inhibition observed
Experimental: as §1

[6] = test system: Mucor hiemalis (DSM 2656); experiment: Antimicrobial assay (MIC); format: cell-based; parameters: key to MIC (µg/mL): -: no inhibition observed
Experimental: as §1

[7] = test system: Pichia anomala (DSM 6766); experiment: Antimicrobial assay (MIC); format: cell-based; parameters: key to MIC (µg/mL): -: no inhibition observed
Experimental: as §1

[8] = test system: Candida albicans (DSM 1665); experiment: Antimicrobial assay (MIC); format: cell-based; parameters: key to MIC (µg/mL): -: no inhibition observed
Experimental: as §1

[9] = test system: Staphylococcus aureus (DSM 346); experiment: Antimicrobial assay (MIC); format: cell-based; parameters: key to MIC (µg/mL): -: no inhibition observed
Experimental: as §1

[10] = test system: Pseudomonas aeruginosa (PA14); experiment: Antimicrobial assay (MIC); format: cell-based; parameters: key to MIC (µg/mL): -: no inhibition observed
Experimental: as §1

[11] = test system: Bacillus subtilis (DSM 10); experiment: Antimicrobial assay (MIC); format: cell-based; parameters: key to MIC (µg/mL): -: no inhibition observed
Experimental: as §1

[12] = test system: Escherichia coli (DSM 1116); experiment: Antimicrobial assay (MIC); format: cell-based; parameters: key to MIC (µg/mL): -: no inhibition observed
Experimental: as §1

[13] = test system: L929 (murine) mouse fibroblasts; experiment: Cytotoxicity (MTT) assay; format: cell-based
Experimental: (§2) In vitro cytotoxic activity of the isolated compounds was tested by applying the MTT (3-(4,5-dimethylthiayol-2-yl)-2,5-diphenyltetrazolium bromide) assay as previously reported. The mammalian cell lines used in the tests were sourced from DSMZ and included mouse fibroblasts (L929) and endocervical adenocarcinoma (KB3.1), human lung carcinoma (A549), breast adenocarcinoma (MCF-7), human ovarian cancer (SKOV-3), prostate carcinoma (PC-3), and epidermoid carcinoma cells (A431).

Caenorhabditis elegans = experiment: Nematicidal activity assay; format: in vivo; details: 18 h
Experimental: The nematicidal activity assay was conducted following a previously described procedure with slight modifications. C. elegans was cultured on nematode growth medium (NGM) containing 3 g NaCl, 20 g agar, 2.5 g peptone, 1 mL 1 M CaCl2, 25 mL of 1 M (pH 6.0) KPO4, 1 mL 1 M MgSO4, and 1 mL cholesterol (5 mg/mL in ethanol) per liter of medium. Plates were coated with Escherichia coli strain OP50, which served as the food source for nematodes. Synchronization of the nematode population was performed using a high egg density plate (~120 h). The plate was rinsed three times with 4 mL of 0.9% NaCl solution and then transferred to a 15 mL falcon tube. The nematode suspension was centrifuged at 1000 rpm for 3 min, and the supernatant was discarded. This procedure was repeated until a clear nematode suspension was obtained. After the last washing step, 2 mL of the suspension was mixed with 5 mL of bleaching solution (1 mL sodium hypochlorite solution, 0.5 mL 5 M NaOH, and 3.5 mL Milli-Q water). The solution was gently shaken for approximately 5 min to break down the nematode tissue, and monitored under the microscope. The reaction was stopped by adding 7 mL 0.9% NaCl solution when traces of adults were still visible. Subsequently, the suspension was centrifuged at 2500 rpm for 2 min and washed 3 times as previously described. After the final washing step, the supernatant was removed, and the volume was adjusted to 7 mL with 0.9% NaCl solution. The nematode egg suspension was incubated at 23 °C on a rotary shaker at 80 rpm for 18 h. The hatched nematodes were transferred to a fresh NGM plate supplemented with E.coli OP50. After 50–70 h, the J4 and adult C. elegans were washed from the plate as mentioned above. The nematode concentration was determined and diluted to approximately 1000 nematodes/mL.
Pure compounds were tested at concentrations of 10, 50, and 100 μg/mL in 48-well microtiter plates. The compounds, dissolved in MeOH, were added to the well plate and subsequently dried under nitrogen. After complete evaporation of the solvent, 300 μL of the nematode suspension (1000 nematodes/mL) was added to the compounds. Each treatment was replicated three times. MeOH was used as the negative control while 1 μg/mL Ivermectin served as the positive control. Nematodes were monitored 15 min after inoculation, and the plates were incubated at 24 °C and 150 rpm for 18 h. After incubation, both alive and dead nematodes were counted in three replicates under a stereomicroscope, and the mortality rate was calculated. Erect and non-moving nematodes were considered dead. […] The observed percentage of dead nematodes was corrected by considering the natural mortality observed in the negative control, using the Schneider-Orelli formula [30].

[14] = test system: KB3.1 (cervix) endocervical adenocarcinoma; format: cell-based, human
Experimental: as §2

[15] = test system: PC-3 (prostate) carcinoma; experiment: Cytotoxicity (MTT) assay; format: cell-based; details: Homo sapiens, read-out: IC50, Positive Control Epothilone B (nM)
Experimental: as §2, with “(A431). Epothilone B was used as the positive control.” for “(A431).”

[16] = test system: A431 (skin) epidermoid carcinoma cells; experiment: Cytotoxicity (MTT) assay; format: cell-based; details: Homo sapiens, A-431, read-out: IC50, Positive Control Epothilone B (nM)
Experimental: as §2, with “(A431). Epothilone B was used as the positive control.” for “(A431).”

[17] = test system: A549 (lung) human lung carcinoma; experiment: Cytotoxicity (MTT) assay; format: cell-based; details: A549, read-out: IC50, Positive Control Epothilone B (nM)
Experimental: as §2, with “(A431). Epothilone B was used as the positive control.” for “(A431).”

[18] = test system: MCF-7 (breast) adenocarcinoma; experiment: Cytotoxicity (MTT) assay; format: cell-based; details: Homo sapiens, MCF7, read-out: IC50, Positive Control Epothilone B (nM)
Experimental: as §2, with “(A431). Epothilone B was used as the positive control.” for “(A431).”

[19] = 10 µg/mL, J4 and adult C. elegans, 24 °C, corrected by Schneider-Orelli formula vs methanol control, mean ± SD (n ≥ 3), < 0: less active than negative control
[20] = 50 µg/mL, J4 and adult C. elegans, 24 °C, corrected by Schneider-Orelli formula vs methanol control, mean ± SD (n ≥ 3)
[21] = 100 µg/mL, J4 and adult C. elegans, 24 °C, corrected by Schneider-Orelli formula vs methanol control, mean ± SD (n ≥ 3)
[22] = MTT assay, KB3.1 (cervix), read-out: IC50

3S,4S-HMDA-L-Trp^1-L-Trp^2-L-Phe (lariat or depsi) [Compound 3, Beauveriolide U, previously undescribed cyclic tetradepsipeptide, HMDA-Trp-Trp-Phe, C42H49N5O5]
MIC (µg/mL) [1]: -
MIC (µg/mL) [2]: -
MIC (µg/mL) [3]: -
MIC (µg/mL) [4]: -
MIC (µg/mL) [5]: -
MIC (µg/mL) [6]: -
MIC (µg/mL) [7]: -
MIC (µg/mL) [8]: -
MIC (µg/mL) [9]: -
MIC (µg/mL) [10]: -
MIC (µg/mL) [11]: -
MIC (µg/mL) [12]: -
IC50 [13]: > 35 µM
Corrected mortality rate (%) (Caenorhabditis elegans; [19]): < 0%
Corrected mortality rate (%) (Caenorhabditis elegans; [20]): 6.0 ± 1.5%
Corrected mortality rate (%) (Caenorhabditis elegans; [21]): 32.1 ± 7.0%
IC50 [14, 22]: > 35 µM

CC(C)C[C@@H]1NC(=O)[C@H](Cc2ccccc2)OC(=O)[C@H](C)N(C)C(=O)[C@H](CC(C)C)NC(=O)[C@H](Cc2ccccc2)NC(=O)[C@H](C)N(C)C1=O [Compound 4, Cardinalisamide D] (cyclo([PhLac]L[NMeA]FL[NMeA]))
MIC (µg/mL) [1]: -
MIC (µg/mL) [2]: -
MIC (µg/mL) [3]: -
MIC (µg/mL) [4]: -
MIC (µg/mL) [5]: -
MIC (µg/mL) [6]: -
MIC (µg/mL) [7]: -
MIC (µg/mL) [8]: -
MIC (µg/mL) [9]: -
MIC (µg/mL) [10]: -
MIC (µg/mL) [11]: -
MIC (µg/mL) [12]: -
IC50 [13]: > 35 µM
Corrected mortality rate (%) (Caenorhabditis elegans; [19]): 13.7 ± 5.2%
Corrected mortality rate (%) (Caenorhabditis elegans; [20]): 14.2 ± 4.9%
Corrected mortality rate (%) (Caenorhabditis elegans; [21]): 23.4 ± 7.4%
IC50 [14]: 36.2 µM

C/C(=C\c1csc(C)n1)[C@@H]1C[C@@H]2O[C@]2(C)CCC[C@H](C)[C@H](O)[C@@H](C)C(=O)C(C)(C)[C@@H](O)CC(=O)O1 [Epothilone B]
IC50 [15]: 0.09 nM
IC50 [16]: 0.06 nM
IC50 [17]: 0.05 nM
IC50 [18]: 0.07 nM

CNC(C)C1CCC(N)C(OC2C(N)CC(N)C(OC3OCC(C)(O)C(NC)C3O)C2O)O1 (stereo not drawn) [Gentamycin, reference compound]
MIC ([3]; DSM30191): 1.7 µg/mL (≈ 3.56 µM)
MIC ([9]; DSM346): 0.42 µg/mL (≈ 0.879 µM)
MIC [10]: 0.42 µg/mL (≈ 0.879 µM)
MIC ([12]; DSM1116): 0.83 µg/mL (≈ 1.74 µM)

NC[C@H]1O[C@H](O[C@H]2[C@H](O)[C@@H](O[C@H]3O[C@H](CO)[C@@H](O)[C@H](N)[C@H]3O)[C@H](N)C[C@@H]2N)[C@H](O)[C@@H](O)[C@@H]1O [Kanamycin, reference compound]
MIC [2]: 0.1 µg/mL (≈ 0.206 µM)

C[C@@H]1[C@H](O)[C@@H](C)/C=C/C=C/CC/C=C/C=C/C=C/C=C/C(O[C@H]2O[C@H](C)[C@@H](O)[C@H](N)[C@@H]2O)CC2O[C@](O)(CC(O)C(O)CCC(O)CC(O)CC(O)CC(=O)O[C@H]1C)CC(O)C2C(=O)O (stereo partly drawn) [Nystatin, reference compound]
MIC [4]: 1.0 µg/mL (≈ 1.08 µM)
MIC [5]: 2.1 µg/mL (≈ 2.27 µM)
MIC [6]: 4.2 µg/mL (≈ 4.54 µM)
MIC [7]: 4.2 µg/mL (≈ 4.54 µM)
MIC [8]: 2.1 µg/mL (≈ 2.27 µM)

CN(C)[C@@H]1C(O)=C(C(N)=O)C(=O)[C@@]2(O)C(O)=C3C(=O)c4c(O)cccc4[C@@](C)(O)[C@H]3[C@H](O)[C@@H]12 [Oxytetracyclin, reference compound]
MIC ([11]; DSM10): 16.6 µg/mL (≈ 36.1 µM)

ES-242-9 [Compound 1]
MIC (µg/mL) [1]: -
MIC (µg/mL) [2]: -
MIC (µg/mL) [3]: -
MIC (µg/mL) [4]: -
MIC (µg/mL) [5]: -
MIC (µg/mL) [6]: -
MIC (µg/mL) [7]: -
MIC (µg/mL) [8]: -
MIC (µg/mL) [9]: -
MIC (µg/mL) [10]: -
MIC (µg/mL) [11]: -
MIC (µg/mL) [12]: -
IC50 [13]: > 35 µM
Corrected mortality rate (%) (Caenorhabditis elegans; [19]): 33.4 ± 5.3%
Corrected mortality rate (%) (Caenorhabditis elegans; [20]): 31.7 ± 7.1%
Corrected mortality rate (%) (Caenorhabditis elegans; [21]): 51.1 ± 5.3% and 51.1%
IC50 [14, 22]: 29.2 µM

HMDA-Trp-Ala-Phe (lariat or depsi) [Compound 2, Beauveriolide T]
MIC (µg/mL) [1]: -
MIC (µg/mL) [2]: -
MIC (µg/mL) [3]: -
MIC (µg/mL) [4]: -
MIC (µg/mL) [5]: -
MIC (µg/mL) [6]: -
MIC (µg/mL) [7]: -
MIC (µg/mL) [8]: -
MIC (µg/mL) [9]: -
MIC (µg/mL) [10]: -
MIC (µg/mL) [11]: -
MIC (µg/mL) [12]: -
IC50 [13]: > 35 µM
Corrected mortality rate (%) (Caenorhabditis elegans; [19]): 11.6 ± 6.4%
Corrected mortality rate (%) (Caenorhabditis elegans; [20]): 33.1 ± 6.7%
Corrected mortality rate (%) (Caenorhabditis elegans; [21]): 36.1 ± 7.3%
IC50 [14, 22]: > 35 µM

Ivermectin [reference compound]
Corrected mortality rate (%) (Caenorhabditis elegans; 1 µg/mL, positive control, C. elegans, corrected mortality, mean ± SD): 87.4 ± 6.5%
